Earlier results on one compound are cited in patent publication US7109169B2, “Method for treating heart failure by inhibiting the sarcolemmal sodium/calcium exchange” (priority 2002, dated 2006).

In the case of `N=C(N)SCCc1ccc(OCc2ccc([N+](=O)[O-])cc2)cc1` [KB-R7943], the “effect on cardiac contractility” value in the data set on cardiac contractility is “no effect”. The “mode of the Na/Ca exchanger inhibited” value in the data set on Na/Ca exchanger was “predominantly the Ca-entry mode”. In addition, the specificity of action result in the data set with Na/Ca exchanger (inhibits a variety of ion channels in the cardiac membrane) is recorded as “completely non-specific”.
